Laboratory results as given in US8765459B2, “Apparatus and methods for manipulation and optimization of biological systems” (The Regents of the University of California, priority 2004, dated 2014).

B1: TNFβ: cytokine used as stimulus of NF-κB activity (protein, UniProt P01374 35-205, looked up)
Lymphotoxin-alpha: LPGVGLTPSAAQTARQHPKMHLAHSTLKPAAHLIGDPSKQNSLLWRANTDRAFLQDGFSLSNNSLLVPTSGIYFVYSQVVFSGKAYSPKATSSPLYLAHEVQLFSSQYPFHVPLLSSQKMVYPGLQEPWLHSMYHGAAFQLTQGDQLSTHTDGIPHLVLSPSTVFFGAFAL
B2: IL-1α: cytokine used as stimulus of NF-κB activity (protein, UniProt P01583 113-271, looked up)
Interleukin-1 alpha: SAPFSFLSNVKYNFMRIIKYEFILNDALNQSIIRANDQYLTAAALHNLDEAVKFDMGAYKSSKDDAKITVILRISKTQLYVTAQDEDQPVLLKEMPEIPKTITGSETNLLFFWETHGTKNYFTSVAHPNLFIATKQDYWVCLAGGPPSITDFQILENQA

Experiments:
NF-κB [1] = test: Sensitivity analysis of individual cytokines in the potent combination, NF-κB GFP reporter, 96-well plates; type: cell-based; conditions: 293T cells; for effect on NF-κB activity when varied within the potent cytokine combination / decrease in fluorescence intensity on elimination of the cytokine from the cytokine combination: 96-well plates, other cytokines held constant, 1 h stimulation, fluorescence 7 h after
Description: (§1) Microfluidic systems have been proven to be effective for manipulating different biological objects, such as cells and molecules. In this example, the optimization experiments were conducted inside microfluidic channels to facilitate real-time monitoring and dynamic stimulation of the cells. (In FIGS. 7a, the concentrations of individual cytokines are indicated as follows: TNFα concentrations are plotted as solid squares; TNFβ concentrations are plotted as solid circles; IL-1α concentrations are plotted as solid triangles; IL-1β concentrations are plotted as inverted triangles; EFG concentrations are plotted as open squares; and BAFF concentrations are plotted as open circles.) The initial concentrations of the cytokines were 2.5 ng/ml. In order to monitor the activity of the NF-κB, a plasmid with a green fluorescent protein (GFP) reporter gene was placed in the 293T cell. The GFP expression is controlled by a promoter which consisted of a kappa enhancer element (κB4). Similar configurations have been applied in other studies where the GFP fluorescence intensity was able to reflect the cellular NF-κB activity. In addition, computational analysis was performed to correlate the relationship between the expression level of GPF and the activity of NF-κB. Numerical simulation indicated the best duration and time for cytokine stimulation and GFP intensity measurement. The GFP fluorescence intensity of each cell was recorded 7 hours after the stimulation as shown in FIG. 7B (data represent the average intensity of 40-128 cells).
Experiments were conducted in 96-well plates. The cells were stimulated with the appropriate concentration of cytokines for one hour and washed with fresh media.

NF-κB [2] = test: Gur Game closed-loop optimization of cytokine combination, NF-κB GFP reporter in microfluidic channels; type: cell-based; conditions: 293T cells with κB4-GFP reporter; 1 h stimulation, GFP read 7 h after; determined by final probability distributions of Gur Game search
Description: To implement the Gur Game algorithm, each cytokine was represented by an automaton with 10 discrete states (0, 0.25, 0.5, 1, 2.5, 5, 10, 25, 50, and 100 ng/ml) as shown in FIG. 6. At each iteration, a combination of cytokines at their respective states was applied to stimulate the cells for one hour. […] The GFP expression kinetics is thought to be controlled by protein folding and degradation rates, while the amount of transcription (GFP intensity) is thought to provide an indication of the NF-κB activity. The peak intensities were normalized as the reward function for Gur Game. The reward function maps the system state from 0 to 1, with high GFP intensity corresponds to values nearer 1. For each automaton, a random number from 0 to 1 is chosen and compared with the reward value. The next states of the automata were determined according to a prescribed manner (see FIG. 1). The process was repeated for each cytokine during each iteration.
as §1
The Gur Game was used to determine the cytokine concentrations in subsequent iterations to probabilistically drive the system toward a high GFP output, i.e. high NF-κB activity. FIG. 6 is a flow chart illustrating an exemplary Gur Game Algorithm, the algorithm used in this example. A detailed description of this exemplary algorithm is set forth above. The peak intensities were normalized as the reward function for this exemplary Gur Game algorithm. The reward function maps the system state from 0 to 1, with high GFP intensity corresponds to values nearer 1. For each automaton, a random number from 0 to 1 is chosen and compared with the reward value.
The next states of the automata were determined according to a prescribed manner, as illustrated in FIG. 7. The process was repeated for each cytokine during each iteration. Each cytokine as represented by an automaton. The numbers represent the concentration of the cytokines, in ng/ml. During each iteration, a random number was generated for each automaton. The numbers were compared to the reward value. If the reward value was larger than the random number, the automaton was rewarded (win). Otherwise, the automaton was penalized (lose). The automaton then decided the state in the next iteration according to the automaton design. Generally, the state moves toward center if penalized, and away the center if rewarded.
Referring to FIGS. 8aand 8b, initially, the system rejected several cytokine combinations with seemingly high outputs. […]

Row | Molecule | effect on NF-κB activity alone, without the potent cytokine combination (NF-κB [1]) | effect on NF-κB activity when varied within the potent cytokine combination (NF-κB [1]) | concentration in the most potent cytokine combination for activating NF-κB (NF-κB [2]) [ng/mL] | decrease in fluorescence intensity on elimination of the cytokine from the cytokine combination (NF-κB [1]) [%]
1 | BAFF: cytokine tested in the combination for NF-κB activity | minimal effect | minimal effect | 2.5 | –
2 | IL-1β: cytokine used as stimulus of NF-κB activity | – | not sensitive to their concentrations in the range of 25-50 ng/ml | 25 | ~30
3 | TNFα | – | most sensitive in the combination | 25 | ~50
4 | epidermal growth factor [EGF] | did not show a strong effect | decreased the NF-κB activity with increasing dose concentration | 2.5 | –
5 | B1 | – | – | 50 | ~30
6 | B2 | – | not sensitive to their concentrations in the range of 25-50 ng/ml | 50 | ~30
